Laboratory results published in patent US7642261B2, “Use of 1-[4-(5-cyanoindol-3-yl)butyl]-4-(2-carbamoyl-benzofuran-5-yl)-piperazine and its physiologically acceptable salts” (Merck Patent GmbH, priority 2002, dated 2010).

Test system: mice
Assay: Marble Burying Test (model for OCSD including OCD)
Format: in vivo
Conditions: dose equieffective to 3 mg/kg of the hydrochloride (92% inhibition)
Description: A typical model for OCSD including OCD is the Marble Burying Test according to Y. Ichimaru, T. Egawa, A. Sawa, Jpn. J. Pharmacol. 1995, 68: 65-70.
The apparatus consists of an open cubic box with 25 clean glass marbles evenly spaced on sawdust. Individual mice are placed in the test box, and the number of glass marbles left uncovered after 20 minutes are counted. 1-[4-(5-cyanoindol-3-yl)butyl]-4-(2-carbamoyl-benzofuran-5-yl)-piperazine or one of its physiologically acceptable salts, in particular 1-[4-(5-cyanoindol-3-yl)butyl]-4-(2-carbamoyl-benzofuran-5-yl)-piperazine hydrochloride, following subcutaneous application inhibits mable burying in mice dose-dependently. For example, a dose of 3 mg/kg of 1-[4-(5-cyanoindol-3-yl)butyl]-4-(2-carbamoyl-benzofuran-5-yl)-piperazine hydrochloride nearly completely (92%) inhibits marble burying; equieffective doses of conventional serotonin reuptake inhibitors are e.g. 20 mg/kg for fluvoxamine or 17 mg/kg for fluoxetine and an equieffective dose of the 5-HT1A agonist ipsapirone is 10 mg/kg.

Row | Structure (SMILES) | equieffective dose for inhibition of marble burying
1 | CNCCC(Oc1ccc(C(F)(F)F)cc1)c1ccccc1 (stereo not drawn) [fluoxetine] | 17 mg/kg
2 | COCCCC/C(=N\OCCN)c1ccc(C(F)(F)F)cc1 [fluvoxamine] | 20 mg/kg
3 | O=C1c2ccccc2S(=O)(=O)N1CCCCN1CCN(c2ncccn2)CC1 [ipsapirone] | 10 mg/kg
